Source: patent US20250296938A1, “Compounds that Interact with the Ras Superfamily for the Treatment of Cancers, Inflammatory Diseases, Rasopathies, and Fibrotic Disease” (SHY Therapeutics, LLC, priority 2018, published 2025)
Read-outs that look alike come from different tables or passages of the source.

Legend:
Experiment in all cases: Ras GTP binding domain inhibition assay (Cy3-GTP/Cy5-GTP competition)
[1] = molecular target: Rac-1 (Homo sapiens, UniProt P63000)
Summary of the method: (§1)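 Compounds tested at 20 μM or in serial dilution for IC50 against nickel-captured His-tagged GTPase, 3 hours at room temperature, with or without His-Sos GEF added for last hour. Fluorescent GTP then added at 100 nM for 45 minutes; wells washed, bound label measured by fluorescence.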

[2] = molecular target: Rho-A (Homo sapiens, UniProt P61586)
Summary of the method: as §1

[3] = molecular target: T1, KRas G12D mutant (Homo sapiens, UniProt P01116, G12D)
T1 construct: fused on or other part: His tag, used for capture on nickel-coated plates
Summary of the method: (§2)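 Ni-plate immobilised His-Ras, overnight 4 °C; cpd 20 μM (or dilution series for IC50), 1% DMSO, 3 h RT; optional His-Sos […] last hour; Cy3- or Cy5-GTP 100 nM, 45 min RT; 3× wash; bound fluorescence read.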

[4] = tested on: KRas G12C mutant; design: species or system human; details: 20 μM; for KRas G12C mutant + SOS: % inh.: with SOS (Table 7A); for KRas G12C mutant: % inh.: without SOS (Table 7A)
Summary of the method: as §2

[5] = tested on: KRas wild type; design: species or system human; details: 20 μM; for KRas wild type + SOS: % inh.: with SOS (Table 7A); for KRas wild type % inh.: without SOS (Table 7A)
Summary of the method: as §2

[6] = tested on: KRas Q61H mutant; design: species or system human; details: 20 μM; for KRas Q61H mutant + SOS: % inh.: with SOS (Table 7A); for KRas Q61H mutant: % inh.: without SOS (Table 7A)
Summary of the method: as §2

[7] = with SOS, read-out: Rac-1 + SOS: % inh.
[8] = without SOS, read-out: Rac-1: % inh.
[9] = with SOS, read-out: Rho-A + SOS: % inh.
[10] = without SOS, read-out: Rho-A: % inh.
[11] = at 20 μM, with SOS, read-out: KRas G12D mutant + SOS: % inh.
[12] = at 20 μM, without SOS, read-out: KRas G12D mutant: % inh.
[13] = 20 μM, with SOS (Table 7A), read-out: KRas G12D mutant + SOS: % inh.
[14] = 20 μM, without SOS (Table 7A), read-out: KRas G12D mutant: % inh.

SMILES	inhibition at 20 µM [1, 7]	inhibition at 20 µM [1, 8]	inhibition at 20 µM [2, 9]	inhibition at 20 µM [2, 10]	inhibition at 20 µM [3, 11]	inhibition at 20 µM [3, 12]	KRas G12C mutant + SOS: % inh. [4]	KRas G12C mutant: % inh. [4]	KRas wild type + SOS: % inh. [5]	KRas wild type % inh. [5]	KRas Q61H mutant + SOS: % inh. [6]	KRas Q61H mutant: % inh. [6]	inhibition at 20 µM [3, 13]	inhibition at 20 µM [3, 14]
CCOC1CCN(c2nc(-c3nccn3C)nc3sc(-c4ccn(C)n4)c(-c4ccccc4)c23)C1 (stereo not shown)	26 to 50%	1 to 25%	0%	26 to 50%	26 to 50%	26 to 50%	–	–	–	–	–	–	–	–
CO[C@H]1CC[C@@H](Nc2nc(-c3ncc[nH]3)nc3sc(-c4ccn(C)n4)c(-c4ccccc4)c23)C1 [drawing 911]	–	–	–	–	–	–	C (51-75% inhibition)	C (51-75% inhibition)	C (51-75% inhibition)	C (51-75% inhibition)	C (51-75% inhibition)	B (26-50% inhibition)	51 to 75%	26 to 50%
CO[C@H]1CC[C@@H](Nc2nc(-c3nccn3C)nc3sc(-c4ccn(C(C)C)n4)c(-c4ccccc4)c23)C1 [drawing 912]	–	–	–	–	–	–	D (76-100% inhibition)	C (51-75% inhibition)	D (76-100% inhibition)	D (76-100% inhibition)	D (76-100% inhibition)	D (76-100% inhibition)	51 to 75%	51 to 75%
COc1nc(-c2ccccn2)nc2c(-c3ccccn3)csc12 [drawing 913]	–	–	–	–	–	–	A (1-25% inhibition)	A (1-25% inhibition)	A (1-25% inhibition)	B (26-50% inhibition)	A (1-25% inhibition)	B (26-50% inhibition)	1 to 25%	26 to 50%
CO[C@H]1C[C@@H](Nc2nc(-c3nccn3C)nc3sc(-c4ccn(C)n4)c(C)c23)C1 [drawing 914]	–	–	–	–	–	–	C (51-75% inhibition)	C (51-75% inhibition)	C (51-75% inhibition)	C (51-75% inhibition)	C (51-75% inhibition)	C (51-75% inhibition)	51 to 75%	51 to 75%
CO[C@H]1CC[C@@H](Nc2nc(-c3nccn3C)nc3sc(-c4ccn(C)n4)c(C)c23)C1 [drawing 915]	–	–	–	–	–	–	D (76-100% inhibition)	C (51-75% inhibition)	D (76-100% inhibition)	C (51-75% inhibition)	D (76-100% inhibition)	C (51-75% inhibition)	51 to 75%	26 to 50%
Cc1c(-c2ccn(C)n2)sc2nc(-c3nccn3C)nc(NCCCS(C)(=O)=O)c12 [drawing 916]	–	–	–	–	–	–	C (51-75% inhibition)	C (51-75% inhibition)	C (51-75% inhibition)	C (51-75% inhibition)	C (51-75% inhibition)	D (76-100% inhibition)	76 to 100%	76 to 100%
Cc1c(-c2ccn(C)n2)sc2nc(-c3nccn3C)nc(NCCCC(=O)N(C)C)c12 [drawing 917]	–	–	–	–	–	–	C (51-75% inhibition)	C (51-75% inhibition)	C (51-75% inhibition)	D (76-100% inhibition)	C (51-75% inhibition)	D (76-100% inhibition)	76 to 100%	51 to 75%
Cc1c(-c2ccn(C)n2)sc2nc(-c3nccn3C)nc(NCCOC(=O)N(C)C)c12 [drawing 918]	–	–	–	–	–	–	C (51-75% inhibition)	D (76-100% inhibition)	D (76-100% inhibition)	D (76-100% inhibition)	D (76-100% inhibition)	C (51-75% inhibition)	76 to 100%	76 to 100%
CO[C@H]1CC[C@@H](Nc2nc(-c3nccn3C)nc3sc(-c4ccn(C(C)C)n4)c(C)c23)C1 [drawing 919]	–	–	–	–	–	–	D (76-100% inhibition)	C (51-75% inhibition)	D (76-100% inhibition)	D (76-100% inhibition)	D (76-100% inhibition)	D (76-100% inhibition)	51 to 75%	51 to 75%
CO[C@H]1C[C@@H](Nc2nc(-c3nccn3C)nc3sc(C(=O)NC(C)C)c(-c4ccccc4)c23)C1 [drawing 920]	–	–	–	–	–	–	D (76-100% inhibition)	D (76-100% inhibition)	D (76-100% inhibition)	C (51-75% inhibition)	D (76-100% inhibition)	D (76-100% inhibition)	51 to 75%	51 to 75%
COCCNC(=O)c1sc2nc(-c3nccn3C)nc(N[C@H]3C[C@@H](OC)C3)c2c1-c1ccccc1 [drawing 921]	–	–	–	–	–	–	D (76-100% inhibition)	D (76-100% inhibition)	C (51-75% inhibition)	D (76-100% inhibition)	D (76-100% inhibition)	D (76-100% inhibition)	51 to 75%	51 to 75%
CO[C@H]1C[C@@H](Nc2nc(-c3nccn3C)nc3sc(C(=O)N4CCOCC4)c(-c4ccccc4)c23)C1 [drawing 922]	–	–	–	–	–	–	C (51-75% inhibition)	D (76-100% inhibition)	C (51-75% inhibition)	C (51-75% inhibition)	C (51-75% inhibition)	D (76-100% inhibition)	51 to 75%	51 to 75%
COC1CCN(C(=O)c2sc3nc(-c4nccn4C)nc(N[C@H]4C[C@@H](OC)C4)c3c2-c2ccccc2)C1 (stereo partly shown) [drawing 923]	–	–	–	–	–	–	C (51-75% inhibition)	C (51-75% inhibition)	C (51-75% inhibition)	C (51-75% inhibition)	C (51-75% inhibition)	C (51-75% inhibition)	51 to 75%	51 to 75%
CO[C@H]1CC[C@@H](Nc2nc(-c3nccn3C)nc3sc(C(=O)NC(C)C)c(-c4ccccc4)c23)C1 [drawing 924]	–	–	–	–	–	–	D (76-100% inhibition)	C (51-75% inhibition)	D (76-100% inhibition)	D (76-100% inhibition)	D (76-100% inhibition)	D (76-100% inhibition)	76 to 100%	76 to 100%
COCCNC(=O)c1sc2nc(-c3nccn3C)nc(N[C@@H]3CC[C@H](OC)C3)c2c1-c1ccccc1 [drawing 925]	–	–	–	–	–	–	D (76-100% inhibition)	D (76-100% inhibition)	D (76-100% inhibition)	D (76-100% inhibition)	D (76-100% inhibition)	D (76-100% inhibition)	76 to 100%	76 to 100%
CO[C@H]1CC[C@@H](Nc2nc(-c3nccn3C)nc3sc(C(=O)N4CCCC4)c(-c4ccccc4)c23)C1 [drawing 926]	–	–	–	–	–	–	D (76-100% inhibition)	D (76-100% inhibition)	C (51-75% inhibition)	C (51-75% inhibition)	D (76-100% inhibition)	D (76-100% inhibition)	51 to 75%	51 to 75%
CO[C@H]1CC[C@@H](Nc2nc(-c3nccn3C)nc3sc(C(=O)N4CCOCC4)c(-c4ccccc4)c23)C1 [drawing 927]	–	–	–	–	–	–	C (51-75% inhibition)	C (51-75% inhibition)	C (51-75% inhibition)	D (76-100% inhibition)	D (76-100% inhibition)	D (76-100% inhibition)	51 to 75%	76 to 100%
COCCn1cc(Nc2nc(-c3ccccn3)nc(OC)c2OC)cn1 [drawing 928]	1 to 25%	1 to 25%	0%	0%	1 to 25%	1 to 25%	–	–	–	–	–	–	–	–
